Here are results for eleven molecules from ChEMBL document CHEMBL3991601, “The target landscape of clinical kinase drugs” (Science, 2017).

Assay [1] has as its target Cyclin-dependent kinase 9 (Homo sapiens, UniProt P50750).
In assay [2] the target is Mast/stem cell growth factor receptor Kit (Homo sapiens, UniProt P10721).
Assay [3] deals with Ras-related C3 botulinum toxin substrate 1 (Homo sapiens, UniProt P63000).
In the next assay the target is Actin-related protein 3 (Homo sapiens, UniProt P61158).
The target of assay [4] is Cyclin-dependent kinase 18 (Homo sapiens, UniProt Q07002).

Active and inactive are the calls of the source. On the calls: in the data inactive means no Kd found up to 30 µM.

Mast/stem cell growth factor receptor Kit, sequence (P10721 whole entry): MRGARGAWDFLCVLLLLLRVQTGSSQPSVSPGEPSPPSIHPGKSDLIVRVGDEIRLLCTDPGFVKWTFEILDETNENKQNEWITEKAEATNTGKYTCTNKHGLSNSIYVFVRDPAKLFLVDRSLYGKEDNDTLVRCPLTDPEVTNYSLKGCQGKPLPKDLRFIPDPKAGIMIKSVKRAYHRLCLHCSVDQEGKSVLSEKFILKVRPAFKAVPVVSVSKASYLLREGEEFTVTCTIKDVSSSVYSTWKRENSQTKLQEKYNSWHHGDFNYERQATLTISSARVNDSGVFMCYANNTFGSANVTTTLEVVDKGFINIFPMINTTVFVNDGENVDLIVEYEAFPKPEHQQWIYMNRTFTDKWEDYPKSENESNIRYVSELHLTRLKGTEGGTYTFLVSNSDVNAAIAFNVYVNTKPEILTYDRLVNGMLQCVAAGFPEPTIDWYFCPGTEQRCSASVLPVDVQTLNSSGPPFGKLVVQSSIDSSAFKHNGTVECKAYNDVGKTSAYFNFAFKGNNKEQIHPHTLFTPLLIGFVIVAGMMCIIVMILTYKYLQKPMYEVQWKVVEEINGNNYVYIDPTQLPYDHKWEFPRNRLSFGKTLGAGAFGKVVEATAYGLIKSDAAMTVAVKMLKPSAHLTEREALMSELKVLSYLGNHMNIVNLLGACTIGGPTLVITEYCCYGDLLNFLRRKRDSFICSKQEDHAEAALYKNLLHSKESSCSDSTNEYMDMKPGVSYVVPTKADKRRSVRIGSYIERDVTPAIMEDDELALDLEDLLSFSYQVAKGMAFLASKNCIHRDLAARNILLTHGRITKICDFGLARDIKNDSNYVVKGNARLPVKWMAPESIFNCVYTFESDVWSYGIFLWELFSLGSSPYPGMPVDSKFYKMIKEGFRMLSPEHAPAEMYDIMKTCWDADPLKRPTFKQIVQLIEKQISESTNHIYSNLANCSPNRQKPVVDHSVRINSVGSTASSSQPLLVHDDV
Cyclin-dependent kinase 18, sequence (Q07002 whole entry): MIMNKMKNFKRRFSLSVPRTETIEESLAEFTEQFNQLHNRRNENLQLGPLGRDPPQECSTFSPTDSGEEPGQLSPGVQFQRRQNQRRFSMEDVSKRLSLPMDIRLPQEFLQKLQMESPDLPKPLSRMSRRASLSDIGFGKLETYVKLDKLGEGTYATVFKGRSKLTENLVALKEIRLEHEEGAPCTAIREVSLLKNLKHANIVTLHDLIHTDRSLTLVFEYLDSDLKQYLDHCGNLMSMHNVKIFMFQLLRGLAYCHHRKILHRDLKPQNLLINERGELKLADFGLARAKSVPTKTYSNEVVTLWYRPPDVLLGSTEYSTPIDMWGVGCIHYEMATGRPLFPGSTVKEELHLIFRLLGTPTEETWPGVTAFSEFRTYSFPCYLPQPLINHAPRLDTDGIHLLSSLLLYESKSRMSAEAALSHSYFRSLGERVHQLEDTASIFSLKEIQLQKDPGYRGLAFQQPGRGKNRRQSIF
Cyclin-dependent kinase 9, sequence (P50750 whole entry): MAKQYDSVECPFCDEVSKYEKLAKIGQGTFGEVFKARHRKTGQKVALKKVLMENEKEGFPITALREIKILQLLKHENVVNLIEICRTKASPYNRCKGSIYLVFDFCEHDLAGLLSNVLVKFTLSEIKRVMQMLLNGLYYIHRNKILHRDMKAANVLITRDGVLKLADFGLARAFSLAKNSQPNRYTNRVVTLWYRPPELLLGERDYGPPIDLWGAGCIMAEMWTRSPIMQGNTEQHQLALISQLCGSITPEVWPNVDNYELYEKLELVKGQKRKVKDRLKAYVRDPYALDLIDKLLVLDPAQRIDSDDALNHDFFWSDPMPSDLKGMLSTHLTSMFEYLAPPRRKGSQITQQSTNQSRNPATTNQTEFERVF

For orientation: Kd means the concentration at which binding is half-saturated. As to `CO[C@H]1C[C@@H]2CC[C@@H](C)[C@@](O)(O2)C(=O)C(=O)N2CCCC[C@H]2C(=O)O[C@H]([C@H](C)C[C@@H]2CC[C@@H](OCCO)[C@H](OC)C2)CC(=O)[C@H](C)/C=C(\C)[C@@H](O)[C@@H](OC)C(=O)[C@H](C)C[C@H](C)/C=C/C=C/C=C/1C` [EVEROLIMUS], the Kd in assay [1] is > 30 µM (inactive).

Regarding `O=C1NC(=O)/C(=C/c2ccc3nccc(-c4ccncc4)c3c2)S1` [GSK-1059615], the Kd in assay [2] is > 30 µM (inactive).

Turning to `Cc1cn(-c2cc(NC(=O)c3ccc(C)c(Nc4nccc(-c5cccnc5)n4)c3)cc(C(F)(F)F)c2)cn1` [NILOTINIB], the Kd in assay [3] is > 30 µM (inactive).

Regarding `CN1CC[C@@H](c2c(O)cc(O)c3c(=O)cc(-c4ccccc4Cl)oc23)[C@@H]1CO`, the Kd in assay [3] is > 30 µM (inactive).

With `C=CC(=O)N1CCC(Oc2cc3c(Nc4ccc(Cl)c(Cl)c4F)ncnc3cc2OC)CC1` [POZIOTINIB], the Kd in assay [3] was > 30 µM (inactive).

With `CN1CCC(COc2cnc(-c3cccc(Cn4nc(-c5cccc(C#N)c5)ccc4=O)c3)nc2)CC1` [TEPOTINIB], the Kd on Actin-related protein 3 was > 30 µM (inactive).

Take `O=C(O)[C@]1(Cc2cccc(Nc3nccs3)n2)CC[C@@H](Oc2cccc(Cl)c2F)CC1` [MK-5108]: in assay [4], the Kd was > 30 µM (inactive).

On to `Cc1cc(-c2cc(O)ccc2Cl)cc2nnc(Nc3ccc(OCCN4CCCC4)cc3)nc12`, for which, in assay [3], the Kd was > 30 µM (inactive).

With `O=C(c1ccc(F)c(F)c1Nc1ccc(I)cc1F)N1CC(O)([C@@H]2CCCCN2)C1` [COBIMETINIB], the Kd in assay [3] is > 30 µM (inactive).

In the case of `CCN1CCN(Cc2ccc(-c3cc4c(N[C@H](C)c5ccccc5)ncnc4[nH]3)cc2)CC1` [AEE-788], the Kd in assay [2] is > 30 µM (inactive).

For the molecule `CC(=O)Nc1cccc(-n2c(=O)n(C3CC3)c(=O)c3c(Nc4ccc(I)cc4F)n(C)c(=O)c(C)c32)c1` [TRAMETINIB], the Kd in assay [4] is > 30 µM (inactive).
